Laboratory results published in US20230286943A1, “IL-17A MODULATORS” (SANOFI, priority 2020, published 2023).
Marks after values point to notes of the source that are not given here.

Target: human recombinant IL-17A (Homo sapiens (Human), UniProt Q16552)
Assay: IL-17A AlphaLISA Assay (competition: block binding of IL-17A to its receptor IL-17RA)
Method: The ability of the compounds to block binding of IL-17A to its receptor, IL-17RA, was analysed in a competition assay using AlphaLISA technology (Perkin Elmer). The assay is a bead based AlphaLISA where the IL-17RA is captured on the acceptor bead via an Fc tag and IL-17A is captured on the streptavidin donor bead via a biotinylated anti-IL-17A antibody.
Assay buffer was prepared by adding 0.05% Tween-20 (v/v) and 0.1% BSA to Phosphate Buffered Saline (PBS). The assay was carried out in 384-well white low volume plates (Corning 4512). 10 μL of a 7.5 nM stock of human recombinant IL-17A (R&D Systems 7955-IL/CF) diluted in assay buffer was dispensed into the assay plate and compounds or DMSO vehicle control were added in a volume of 75 nL using a D300 dispenser (Hewlett Packard). The compounds were pre-incubated with the IL-17A for 24 h at room temperature (or for 30 min, where indicated by * in Table A below) prior to addition of 5 μL of a 5 nM stock of human recombinant IL-17RA/Fc chimera (R&D Systems 177-IR-100) diluted in assay buffer. The IL-17A was incubated with the receptor for a further 90 minutes at room temperature before addition of 5 μL of a mixture of anti-human Fc IgG acceptor beads (75 μg/mL, Perkin Elmer AL103C) and anti-IL-17A biotin conjugated antibody (5 nM, Enzo Life Sciences, ENZ-ABS278-0100) in assay buffer. After a further 30 min incubation at room temperature, 5 μL of streptavidin donor beads (75 μg/mL, Perkin Elmer 6760002S) were added and the plate was incubated for 3 h in the dark.
The luminescence signal was measured using an Enspire plate reader (Perkin Elmer) with excitation at 680 nm and emission at 615 nm. Data were analysed using GraphPad Prism and fitted to a 4-parameter logistic equation. The IC50 values were calculated using the DMSO vehicle as the negative control and a high concentration (6 μM) of a reference IL-17A inhibitor as the positive control.
Activity of the Example compounds is reported as a pIC50 value in Table A.

[1] = compounds pre-incubated with IL-17A for 30 min (indicated by *)

Chain of human recombinant IL-17A (Q16552 24-155): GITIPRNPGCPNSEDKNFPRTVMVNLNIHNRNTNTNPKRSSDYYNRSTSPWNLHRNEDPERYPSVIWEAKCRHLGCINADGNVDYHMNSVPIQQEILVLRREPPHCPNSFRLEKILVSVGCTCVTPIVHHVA

Row | SMILES | AlphaLISA pIC50 [1] | AlphaLISA pIC50 (compounds pre-incubated with IL-17A for 24 h at room temperature)
1 | Cc1c(-c2ccc(NC(=O)[C@@H](NC(=O)c3ccnn3C)C3CCC(C)(C)CC3)cc2)ccc(=O)n1C [Example 21, (S)-N-(2-((4-(1,2-Dimethyl-6-oxo-1,6-dihydropyridin-3-yl)phenyl)amino)-1-(4,4-dimethylcyclohexyl)-2-oxoethyl)-1-methyl-1H-pyrazole-5-carboxamide] | 6.0* | –
2 | Cc1c(-c2ccc(NC(=O)[C@@H](NC(=O)c3ccnn3C)C3CCC(F)(F)CC3)cc2)ccc(=O)n1C [Example 20, (S)-N-(1-(4,4-Difluorocyclohexyl)-2-((4-(1,2-dimethyl-6-oxo-1,6-dihydropyridin-3-yl)phenyl)amino)-2-oxoethyl)-1-methyl-1H-pyrazole-5-carboxamide] | 6.0* | –
3 | CCn1nccc1C(=O)N[C@H](C(=O)Nc1cnc(-c2c(C)cnn2C)c(F)c1)[C@H]1CC[C@H](C)CC1 [Example 108, N-((S)-2-((6-(1,4-dimethyl-1H-pyrazol-5-yl)-5-fluoropyridin-3-yl)amino)-1-((1 r,4S)-4-methylcyclohexyl)-2-oxoethyl)-1-ethyl-1H-pyrazole-5-carboxamide] | 6.8* | –
4 | Cc1cnn(C)c1-c1ccc(NC(=O)[C@@H](NC(=O)c2ccnn2C)C2CCCC2)nc1 [Example 102, (S)-N-(1-cyclopentyl-2-((5-(1,4-dimethyl-1H-pyrazol-5-yl)pyridin-2-yl)amino)-2-oxoethyl)-1-methyl-1H-pyrazole-5-carboxamide] | 6.1* | –
5 | Cc1nnn(C)c1-c1ccc(NC(=O)[C@@H](NC(=O)c2ccnn2C)[C@H]2CC[C@H](C)CC2)nc1 [Example 44, N-((S)-2-((5-(1,4-Dimethyl-1H-1,2,3-triazol-5-yl)pyridin-2-yl)amino)-1-((1r,4S)-4-methylcyclohexyl)-2-oxoethyl)-1-methyl-1H-pyrazole-5-carboxamide] | 6.8* | –
6 | Cc1c(-c2ccc(NC(=O)[C@@H](NC(=O)c3ccnn3C)[C@H]3CC[C@H](C)CC3)nc2)ccc(=O)n1C [Example 8, N-((S)-2-((1′,2′-Dimethyl-6′-oxo-1′,6′-dihydro-[3,3′-bipyridin]-6-yl)amino)-1-((1 r,4S)-4-methylcyclohexyl)-2-oxoethyl)-1-methyl-1H-pyrazole-5-carboxamide] | – | 6.0
7 | Cc1cnn(C)c1-c1ncc(NC(=O)[C@@H](NC(=O)c2ccnn2C)[C@H]2CC[C@H](C)CC2)cc1F [Example 98, N-((S)-2-((6-(1,4-dimethyl-1H-pyrazol-5-yl)-5-fluoropyridin-3-yl)amino)-1-((1 r,4S)-4-methylcyclohexyl)-2-oxoethyl)-1-methyl-1H-pyrazole-5-carboxamide] | 6.3* | –
8 | Cc1nsc(C)c1-c1ccc(NC(=O)[C@@H](NC(=O)c2cnnn2C)[C@H]2CC[C@H](C)CC2)nc1 [Example 116, N-((S)-2-((5-(3,5-dimethylisothiazol-4-yl)pyridin-2-yl)amino)-1-((1r,4S)-4-methylcyclohexyl)-2-oxoethyl)-1-methyl-1H-1,2,3-triazole-5-carboxamide] | 6.0* | –
9 | CCn1nccc1C(=O)N[C@H](C(=O)Nc1ccc(-c2c(C)c[n+]([O-])cc2C)cn1)[C@H]1CC[C@H](C)CC1 [Example 58, 6-((S)-2-(1-Ethyl-1H-pyrazole-5-carboxamido)-2-((1 r,4S)-4-methylcyclohexyl)acetamido)-3′,5′-dimethyl-[3,4′-bipyridine]1′-oxide] | 6.9* | –
10 | COc1c(-c2ccc(NC(=O)[C@@H](NC(=O)c3ccnn3C)[C@H]3CC[C@H](C)CC3)nc2)ccnc1C [Example 70, N-((S)-2-((3′-methoxy-2′-methyl-[3,4′-bipyridin]-6-yl)amino)-1-((1r,4S)-4-methylcyclohexyl)-2-oxoethyl)-1-methyl-1H-pyrazole-5-carboxamide] | 6.1* | –
